Ten molecules from patent publication US9221765B2, “Inhibition and dispersion of bacterial biofilms with benzimidazole derivatives” (North Carolina State University, priority 2009, dated 2015) can be followed below.

For test [1], the system named is vancomycin-resistant Enterococcus faecium (VRE). Kind of test: Dispersion of preformed VRE (E. faecium) biofilm. It counts as cell-based. The settings on record: concentration that disperses 50% of a pre-formed biofilm. The protocol:
(§1) A dose-response study was then initiated in which both the IC50 and EC50 value of each compound towards the bacterial strains were determined (Table 1). Here, IC50 is defined as the concentration of compound that inhibits 50% biofilm development while EC50 is defined as the concentration of compound that disperses 50% of a pre-formed biofilm.
(§2) Procedure to Determine the Dispersal Effect of Test Compounds on E. faecium, MRSA and S. epidermidis Preformed Biofilms:
(§3) Dispersion assays were performed by taking an overnight culture of bacterial strain and subculturing it at an OD600 of 0.01 into the necessary media (brain heart infusion for E. faecium, tryptic soy broth with a 0.5% glucose supplement (TSBG) for MRSA and tryptic soy broth with a 0.5% glucose supplement and a 3.0% NaCl supplement (TGN) for S. epidermidis. The resulting bacterial suspension was aliquoted (100 μL) into the wells of a 96-well PVC microtiter plate. Plates were then wrapped in GLAD Press n′ Seal® followed by an incubation under stationary conditions at ambient temperature to establish the biofilms. After 24 h, the media was discarded from the wells and the plates were washed thoroughly with water. Stock solutions of predetermined concentrations of the test compound were then made in the necessary media. These stock solutions were aliquoted (100 μL) into the wells of the 96-well PVC microtiter plate with the established biofilms. Media alone was added to a subset of the wells to serve as a control. Sample Plates were then incubated for 24 h at 37° C. After incubation, the media was discarded from the wells and the plates were washed thoroughly with water. Plates were then stained with 100 μL of 0.1% solution of crystal violet (CV) and then incubated at ambient temperature for 30 min. Plates were washed with water again and the remaining stain was solubilized with 200 μL of 95% ethanol. A sample of 125 μL of solubilized CV stain from each well was transferred to the corresponding wells of a polystyrene microtiter dish. Biofilm dispersion was quantitated by measuring the OD540 of each well in which a negative control lane wherein no biofilm was formed served as a background and was subtracted out.

Test [2] has as its system S. epidermidis. Kind of test: Inhibition of S. epidermidis biofilm formation (crystal violet). The settings on record: for IC50: concentration that inhibits 50% biofilm development; for ability to inhibit biofilm formation: 100 μM (highest concentration tested). It counts as cell-based, Staphylococcus epidermidis. The protocol:
as §1
(§4) Procedure to Determine the Inhibitory Effect of Test Compounds on E. faecium, MRSA, S. epidermidis, PAO1 and MDRAB Biofilm Formation:
(§5) Inhibition assays were performed by taking an overnight culture of bacterial strain and subculturing it at an OD600 of 0.01 into the necessary media (brain heart infusion for E. faecium, tryptic soy broth with a 0.5% glucose supplement (TSBG) for MRSA, Luria-Bertani (LB) media for MDRAB, Luria-Bertani media without NaCl (LBNS) for PAO1 and tryptic soy broth with a 0.5% glucose supplement and a 3.0% NaCl supplement (TGN) for S. epidermidis. Stock solutions of predetermined concentrations of the test compound were then made in the necessary media. These stock solutions were aliquoted (100 μL) into the wells of the 96-well PVC microtiter plate. Sample plates were then wrapped in GLAD Press n′ Seal® followed by an incubation under stationary conditions for 24 h at 37° C. After incubation, the media was discarded from the wells and the plates were washed thoroughly with water. Plates were then stained with 100 μL of 0.1% solution of crystal violet (CV) and then incubated at ambient temperature for 30 min. Plates were washed with water again and the remaining stain was solubilized with 200 μL of 95% ethanol. A sample of 125 μL of solubilized CV stain from each well was transferred to the corresponding wells of a polystyrene microtiter dish. Biofilm inhibition was quantitated by measuring the OD540 of each well in which a negative control lane wherein no biofilm was formed served as a background and was subtracted out.
as §5, with “2-(2-amino-1H-benzo[d]imidazol-6-ylcarbamoyl)-3,4,5,6-tetrachlorobenzoic acid hydrochloride” for “test compound”, “media. Samples were then doped with 10.0 μM FeSO4 with samples with no test compound to examine effects of 10.0 μM FeSO4 on biofilm formation.” for “media.”

Test [3] deals with S. epidermidis. Description: Dispersion of preformed S. epidermidis biofilm. The format is cell-based, Staphylococcus epidermidis. The settings on record: concentration that disperses 50% of a pre-formed biofilm. The protocol:
as §1, §2, §3

The test system of test [4] is vancomycin-resistant Enterococcus faecium (VRE). Description: Inhibition of VRE (E. faecium) biofilm formation (crystal violet). The format is cell-based. Conditions: for ability to inhibit biofilm formation: 100 μM (highest concentration tested). The protocol:
as §1, §4, §5
as §5, with “2-(2-amino-1H-benzo[d]imidazol-6-ylcarbamoyl)-3,4,5,6-tetrachlorobenzoic acid hydrochloride” for “test compound”, “media. Samples were then doped with 10.0 μM FeSO4 with samples with no test compound to examine effects of 10.0 μM FeSO4 on biofilm formation.” for “media.”

The subject of test [5] is MRSA. Kind of test: Dispersion of preformed MRSA biofilm. It counts as cell-based, Staphylococcus aureus. The settings on record: concentration that disperses 50% of a pre-formed biofilm. The protocol: as §1, §2, §3
Test [6] deals with MRSA. Description: Inhibition of MRSA biofilm formation (crystal violet). Conditions: for IC50: concentration that inhibits 50% biofilm development; for ability to inhibit biofilm formation: 100 μM (highest concentration tested). It counts as cell-based, Staphylococcus aureus. Here is the method:
as §1, §4, §5
as §5, with “2-(2-amino-1H-benzo[d]imidazol-6-ylcarbamoyl)-3,4,5,6-tetrachlorobenzoic acid hydrochloride” for “test compound”, “media. Samples were then doped with 10.0 μM FeSO4 with samples with no test compound to examine effects of 10.0 μM FeSO4 on biofilm formation.” for “media.”

Test [7] is described as follows: Divalent zinc binding via 1H NMR spectroscopy. Conditions: 0, 0.5, 1.0 equivalents ZnCl2; DMSO. The protocol:
Given this Zn(II)-dependence, the ability of 3 to bind zinc directly was determined to ascertain if the mechanism was potentially occurring via a Zn(II)-binding mechanism. To answer this question, an ^1H NMR binding experiment was performed in which the chemical shifts of 3 were measured in the presence of 0 equivalents, 0.5 equivalents, and 1.0 equivalents ZnCl2. […] As a control, the same experiment was performed with FeSO4.
Procedure to Determine the Divalent Zinc Binding Effects of Test Compounds via ^1H NMR Spectroscopy:
^1H NMR Spectra were obtained of the test compounds in DMSO on a 400 MHz NMR in the absence and in the presence of one equivalent of ZnCl2. 2-(2-amino-1H-benzo[d]imidazol-5-ylcarbamoyl)-3,4,5,6-tetrachlorobenzoic acid hydrochloride was tested at a 228 mM. 2,3,4,5-tetrachloro-6-(phenylcarbamoyl)benzoic acid was tested at 275 mM. 1H-benzo[d]imidazol-2-amine hydrochloride was tested at 649 mM.

The test system of test [8] is E. faecium, MRSA and S. epidermidis. Kind of test: Mitigating effects of zinc on biofilm formation inhibition. Conditions: 200.0 μM ZnCl2 alone, no test compound. The format is cell-based.
Text: Next, Zn(II) homeostasis was examined. Zn(II) has been implicated in the pathogenesis of Gram-positive bacterial infections and may be an important regulator of biofilm formation (Conrady, D. G.; Brescia, C. C.; Horii, K.; Weiss, A. A.; Hassett, D. J.; Herr, A. B. Proceedings of the National Academy of Sciences of the United States of America 2008, 105, 19456-19461).
Procedure to Determine the Mitigating Effects of Zinc on E. faecium, MRSA and S. epidermidis Biofilm Formation Inhibition Induced by 2-(2-Amino-1H-Benzo[d]Imidazol-6-Ylcarbamoyl)-3,4,5,6-Tetrachlorobenzoic Acid Hydrochloride:
as §5, with “50.0 μM 2-(2-amino-1H-benzo[d]imidazol-6-ylcarbamoyl)-3,4,5,6-tetrachlorobenzoic acid hydrochloride” for “predetermined concentrations of the test compound”, “media. Samples were then doped with 25.0, 50.0, 75.0, 100.0, 150.0 and 200.0 μM ZnCl2 with controls in which no test compound was added to examine effects of 200.0 μM ZnCl2 on biofilm formation.” for “media.”

The mark [9] stands for this setting: VRE, concentration that inhibits 50% biofilm development, read-out: IC50.

Structures can show the parent of a compound that is named as a salt. Where two headings read alike, the source gives them in different places.

For the molecule `Nc1nc2ccc(NC(=O)[C@H]3[C@@H](C(=O)O)C4(Cl)C(Cl)=C(Cl)C3(Cl)C4(Cl)Cl)cc2[nH]1` (relative stereo) [Compound 4], the half-maximal effective concentration (EC50) is 280 µM in test [1] (read-out: EC50 (converted)), 19 µM in the test with S. epidermidis [3] and 6.6 µM in the test with MRSA [5] (read-out: EC50 (converted)). Further, the values for the 50% inhibitory concentration (IC50) (in the test with S. epidermidis [2]; in test [4] (setting [9]); with MRSA [6] (read-out: IC50)) were 1.9 ± 0.4 µM, 210 ± 35 µM and 1.5 ± 0.4 µM, respectively.
For the molecule `Nc1nc2ccc(NC(=O)[C@@H]3C4C=CC(C4)[C@@H]3C(=O)O)cc2[nH]1` (stereo partly drawn) [Compound 5, (2S,3R)-3-(2-amino-1H-benzo[d]imidazol-6-ylcarbamoyl)bicyclo[2.2.1]hept-5-ene-2-carboxylic acid hydrochloride], the results for the half-maximal effective concentration (EC50) (in test [1]; in the test on S. epidermidis [3] (Staphylococcus epidermidis); in the test with MRSA [5] (Staphylococcus aureus)) were 107 µM, 45 µM and 63 µM, respectively. Further, the concentration for half-maximal inhibition (IC50) stood at 4.1 ± 2 µM in the test on S. epidermidis [2] (Staphylococcus epidermidis), 63 ± 9.1 µM in test [4] and 16 ± 2.9 µM in the test with MRSA [6] (Staphylococcus aureus).
With `CC(C)(CC(=O)O)CC(=O)Nc1ccc2nc(N)[nH]c2c1` [Compound 7], the EC50 is 94 µM in test [1] (read-out: EC50 (converted)), 260 µM with S. epidermidis [3] and 205 µM in the test with MRSA [5] (read-out: EC50 (converted)). For the same molecule, the 50% inhibitory concentration (IC50) with S. epidermidis [2] was 240 ± 20 µM; in test [4] (setting [9]), 0.9 ± 0.3 µM; in the test on MRSA [6] (read-out: IC50), 69 ± 2.7 µM.
Turning to `Nc1nc2ccc(NC(=O)c3cccc4cccc(C(=O)O)c34)cc2[nH]1` [Compound 9, 8-(2-amino-1H-benzo[d]imidazol-6-ylcarbamoyl)-1-naphthoic acid hydrochloride], the half-maximal effective concentration (EC50) in test [1] was 6.3 µM; with S. epidermidis [3] (Staphylococcus epidermidis), 30 µM; in the test on MRSA [5] (Staphylococcus aureus), > 300 µM. Further, the values for the half-inhibitory concentration (IC50) (in the test with S. epidermidis [2] (Staphylococcus epidermidis); in test [4]; in the test on MRSA [6] (Staphylococcus aureus)) were 6.2 ± 1.2 µM, 0.9 ± 0.4 µM and > 300 µM, respectively.
For the molecule `Nc1nc2ccc(N3C(=O)CC4(CCC4)CC3=O)cc2[nH]1` [Compound 14], the EC50 in test [1] (read-out: EC50 (converted)) was 230 µM; in the test on S. epidermidis [3] it was 180 µM; in the test on MRSA [5] (read-out: EC50 (converted)), 48 µM. Moreover, the values for the IC50 (with S. epidermidis [2]; in test [4] (setting [9]); with MRSA [6] (read-out: IC50)) were 170 ± 14 µM, 1.9 ± 0.5 µM and 42 ± 2.4 µM, respectively.
As to `Nc1nc2ccc(N3C(=O)c4cccc5cccc(c45)C3=O)cc2[nH]1` [Compound 15], the EC50 in test [1] (read-out: EC50 (converted)) is 110 µM; in the test with S. epidermidis [3] it was 81 µM; in the test on MRSA [5] (read-out: EC50 (converted)) it was > 300 µM. Moreover, the IC50 in the test with S. epidermidis [2] is 24 ± 6.3 µM; in test [4] (setting [9]) it was 69 ± 10 µM; in the test on MRSA [6] (read-out: IC50), > 300 µM.
Consider `Nc1nc2ccc(N3C(=O)[C@@H]4[C@H](C3=O)C3(Cl)C(Cl)=C(Cl)C4(Cl)C3(Cl)Cl)cc2[nH]1` [Compound 16], for which the results for the concentration for a half-maximal effect (EC50) (in test [1] (read-out: EC50 (converted)); in the test with S. epidermidis [3]; with MRSA [5] (read-out: EC50 (converted))) were 31 µM, 33 µM and 9.5 µM, respectively. Besides, the IC50 with S. epidermidis [2] amounted to 1.5 ± 0.5 µM; in test [4] (setting [9]), 7.4 ± 1.7 µM; with MRSA [6] (read-out: IC50), 5.7 ± 0.5 µM.
Consider `Nc1nc2ccccc2[nH]1` [Compound 17, reference compound], for which the “ability to inhibit biofilm formation” value (with S. epidermidis [2]; in test [4] (VRE); with MRSA [6]) was “Neither compound was able to inhibit” throughout. Also, the “zinc binding, change of 1H NMR signals” value in test [7] is “no change”.
As to `O=C(O)c1c(Cl)c(Cl)c(Cl)c(Cl)c1C(=O)Nc1ccccc1` [Compound 18, reference compound], the “ability to inhibit biofilm formation” value (with S. epidermidis [2]; in test [4] (VRE); with MRSA [6]) was “Neither compound was able to inhibit” throughout. Further, the “zinc binding, change of 1H NMR signals” value in test [7] is listed as “no change”.
As for `[Cl-].[Cl-].[Zn+2]` [ZnCl2, reference compound], the “effect on biofilm formation” value in test [8] is given as “no effect on biofilm formation”.

The term EC50 denotes the concentration that produces a half-maximal response. As usually defined, the IC50 is the concentration that inhibits the measured activity by half.
